Entries after “also recorded” stand apart in the source; their conditions may differ.
Key:
[1] = tested on: AR, CDC25, GREB1, PGR and TFF1; test: Expression of genes upregulated by estradiol binding to ERα, real-time PCR in MCF7 cells; type: cell-based; conditions: 18 hours, FIGS. 10D-10H
ERα [2] = target: T1, ERα (Homo sapiens, UniProt P03372); test: ERα protein level, western blot in MCF7 cells; type: cell-based; set-up: The intensity of ERα in the nucleus of MCF7 cells was reduced with time; endogenous in cells; host or cells: MCF7; conditions: 18 hours, single cannabinoids vs 1:25:1,000 combination, FIGS. 10A-10B
[3] = tested on: Immortalized Human Endometriotic Cell Line (12Z); test: Endometriosis model, Annexin V assay, cell viability; type: cell-based; conditions: 12Z cells; 24 hours; CF2 concentration of 1 μg/mL
Description: To determine the therapeutic effects of CF2 on endometriosis, an Immortalized Human Endometriotic Cell Line (12Z) was used. Cells were incubated in a 12 well plate, each containing 1×10^6 cells. The cells were treated with either vehicle, or CF2 (0.125 to 1 μg/mL each) for 24 hours. Apoptosis was assessed using the Annexin V assay as detailed above. Data are presented as mean±S.E.M (n=3) and statistically analyzed by two-way ANOVA (*p<0.05, ****p<0.0001).

MCF7 cells [4] = type: cell-based
ESR1 = ESR1 expression level, real-time PCR in MCF7 cells; type: cell-based; conditions: 18 hours, FIG. 10C
Description: The expression level of ESR1, the gene encoding for ERα, using real-time PCR following 18 hours of CANN14 treatment was examined. RNA was extracted from 5×10^5 cells and isolated using TRI reagents (Sigma, UK) according to the manufacturer's protocol. The RNA was reverse transcribed with Maxima First Strand cDNA synthesis kit (Life Technologies, Burlington, Canada) and RT-qPCR was preformed using Taq-Man (Life Technologies Ltd, UK). The fold change of calculated compared to the housekeeping gene 18S, using the formula 2^(−ΔΔCT). DMSO was used as a control. […] The activity of ERα as a transcriptional regulator by assessing its binding to Estrogen Response Elements (ERE) following CANN14 treatment was then examined. MCF7 cells were transfected with ERE-luciferase plasmid and luciferase activity was measured.
Next, the effect of the three identified cannabinoids on ERα expression and activity was examined. ERα protein level in MCF7, T47D, and ZR-75-1 cells was measured following 18 hours treatment with either THC, CBN or CF2, separately or in combinations (FIGS. 7A-7B, 8A-8B, and 9A-9B, respectively). […] ESR1 expression level was lowest following treatment with CF2 alone (FIG. 10C).

ERα [5] = target: T1, ERα; test: Endometriosis model, estrogen receptor western blot in 12Z cell line; type: cell-based; set-up: endogenous in cells; host or cells: 12Z; conditions: 5 h, CF2 0.125 to 0.75 μg/mL
[6] = tested on: cleaved caspase-3 in ZR-75-1 cells; test: Cleaved caspase-3 western blot; type: cell-based; conditions: 8 hours, CANN14 4 μg/ml, tamoxifen 5 μM, relative to DMSO control
[7] = tested on: cleaved caspase-3 in MCF7 cells; test: Cleaved caspase-3 western blot; type: cell-based; conditions: 8 hours, CANN14 4 μg/ml, tamoxifen 5 μM, relative to DMSO control
MCF7 cells [8] = test: In-vivo mouse model, subcutaneous MCF7 ectopic tumor; conditions: nude mice, MCF7 tumors; IP three times weekly; CANN14 25 mg/kg, tamoxifen 2 mg/kg
T47D cells = test: Apoptosis by Annexin V/PI staining, flow cytometry; type: cell-based; conditions: CANN14 4 μg/ml, tamoxifen 5 μM or combination
MCF7 cells [9] = conditions: extracts 4 μg/ml, 24 hours, tamoxifen 5 μM, alone or combined
[10] = tested on: cleaved caspase-3 in T47D cells; test: Cleaved caspase-3 western blot; type: cell-based; conditions: 8 hours, CANN14 4 μg/ml, tamoxifen 5 μM, relative to DMSO control
ZR-75-1 cells = test: Apoptosis by Annexin V/PI staining, flow cytometry; type: cell-based; conditions: CANN14 4 μg/ml, tamoxifen 5 μM or combination

T1 sequence (P03372 whole entry): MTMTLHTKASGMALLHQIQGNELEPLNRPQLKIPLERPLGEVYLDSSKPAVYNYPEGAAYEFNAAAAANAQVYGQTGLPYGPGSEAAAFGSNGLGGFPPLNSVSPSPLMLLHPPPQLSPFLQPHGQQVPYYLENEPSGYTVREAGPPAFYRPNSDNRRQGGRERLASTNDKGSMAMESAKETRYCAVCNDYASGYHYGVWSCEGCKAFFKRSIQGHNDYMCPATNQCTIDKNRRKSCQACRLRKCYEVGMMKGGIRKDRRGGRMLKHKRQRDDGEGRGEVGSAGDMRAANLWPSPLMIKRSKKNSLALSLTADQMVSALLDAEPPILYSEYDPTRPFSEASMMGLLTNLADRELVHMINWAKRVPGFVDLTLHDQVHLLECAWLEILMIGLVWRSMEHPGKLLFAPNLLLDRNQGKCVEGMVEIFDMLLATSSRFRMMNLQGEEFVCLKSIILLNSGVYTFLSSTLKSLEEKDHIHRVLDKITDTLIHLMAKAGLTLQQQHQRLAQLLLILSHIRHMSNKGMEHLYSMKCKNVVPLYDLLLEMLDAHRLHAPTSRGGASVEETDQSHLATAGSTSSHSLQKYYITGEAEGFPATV

| SMILES | expression levels of ERα target genes [1] | ERα protein level (ERα [2]) | cell viability (% Live cells) [3] | apoptotic effect compared with the original 1:25:1,000 combination of CF2, CBN, and THC (MCF7 cells [4]) | apoptotic effect compared with the CANN14 whole extract (MCF7 cells [4]; MCF7 cells, higher concentrations of CF2, in combination with tamoxifen, FIG. 4G) | ESR1 expression level (ESR1) | ERα protein level (ERα [5]) | cleaved caspase-3, normalized intensity (treatment/control) [6] | cleaved caspase-3, normalized intensity (treatment/control) [7] | ectopic tumor volume / tumor size (MCF7 cells [8]) | % Apoptosis (T47D cells) | % Apoptosis (MCF7 cells [4]; MCF7 cells, CANN14 4 μg/ml, tamoxifen 5 μM or combination) | % Cell death (MCF7 cells [9]) | cleaved caspase-3, normalized intensity (treatment/control) [10] | % Apoptosis (ZR-75-1 cells) |
| --- | --- | --- | --- | --- | --- | --- | --- | --- | --- | --- | --- | --- | --- | --- | --- |
| CCCCCc1cc(O)c2c(c1)OC(C)(C)c1ccc(C)cc1-2 [CBN, cannabinol, reference compound] | reduced to the lowest level compared to the control | – | – | – | – | – | – | – | – | – | – | – | – | – | – |
| CCCCCc1cc(O)c(C/C=C(/C)CCC=C(C)C)c(O)c1OC(C)=O [CF2] | reduced to the lowest level compared to the control | significantly reduced the most; also recorded: reduces ERα protein level | statistically significant reduction in cell viability; also recorded: reduces cell viability | same apoptotic effect as the original combination of the three phytocannabinoids | significantly superior to the CANN14 whole extract | lowest | significantly reduced; also recorded: reduces | – | – | – | – | – | – | – | – |
| CC/C(=C(\c1ccccc1)c1ccc(OCCN(C)C)cc1)c1ccccc1 [tamoxifen] | – | – | – | – | – | – | – | increased induction of cleaved caspase-3 | increased induction of cleaved caspase-3 | trend of smaller tumor sizes | not affected | not affected | did not affect the viability of the cells | increased induction of cleaved caspase-3 | not affected |
